In ChEMBL document CHEMBL1687697 (ACS Med Chem Lett, 2010):
The source made the active and inactive calls. The calls are words filed in the database; no cut-off is given here.

Columns and labels:
DU-145 [1] = test: Effect on Src protein level in human DU145 cells at 0.1 to 2 uM after 2 hrs by Western blot analysis; assay type: functional, cell-based
[2] = Inhibition of MEK after 60 mins by radiometric assay
PC-3 = test: Antiproliferative activity against human PC3 cells after 72 hrs by MTT assay; assay type: functional, cell-based; conditions: PC-3, 72 h
DU-145 [3] = test: Induction of apoptosis in human DU145 cells assessed as early apoptotic cells at 5 uM after 72 hrs by AnnexinV-propidium iodide based FACS flow cytometry; assay type: functional
DU-145 [4] = test: Effect on phosphorylated-JAK2 protein level in human DU145 cells at 0.1 to 2 uM after 24 hrs by Western blot analysis; assay type: functional, cell-based
[5] = target: Receptor-type tyrosine-protein kinase FLT3 (Homo sapiens, UniProt P36888); test: Inhibition of Flt3 after 60 mins by radiometric assay
DU-145 [6] = test: Effect on JAK2 protein level in human DU145 cells at 0.1 to 2 uM after 24 hrs by Western blot analysis; assay type: functional, cell-based
[7] = target: Signal transducer and activator of transcription 1-alpha/beta (Homo sapiens) (UniProt P42224); test: Inhibition of STAT1 phosphorylation at Tyr701 after 2 hrs by Western blot analysis
DU-145 [8] = test: Effect on phosphorylated-JAK2 protein level in human DU145 cells at 0.1 to 2 uM after 2 hrs by Western blot analysis; assay type: functional, cell-based
[9] = target: 3-phosphoinositide-dependent protein kinase 1 (Homo sapiens, UniProt O15530); test: Inhibition of PDK1 after 60 mins by radiometric assay
[10] = target: Fibroblast growth factor receptor 1 (Homo sapiens, UniProt P11362); test: Inhibition of FGFR-1 after 60 mins by radiometric assay
[11] = target: Serine/threonine-protein kinase B-raf (Homo sapiens, UniProt P15056); test: Inhibition of B-Raf after 60 mins by radiometric assay
DU-145 [12] = test: Induction of apoptosis in human DU145 cells assessed as viable cells at 5 uM after 72 hrs by AnnexinV-propidium iodide based FACS flow cytometry; assay type: functional; conditions: DU-145, 72 h, read-out: Activity
DU-145 [13] = test: Decrease in cyclin D1 protein level in human DU145 cells at 0.1 to 2 uM after 2 hrs by Western blot analysis; assay type: functional, cell-based
[14] = target: Signal transducer and activator of transcription 3 (Homo sapiens) (UniProt P40763); test: Inhibition of STAT3 phosphorylation Ser727 in human DU145 cells after 24 hrs by Western blot analysis; assay type: cell-based; conditions: DU-145
HeLa = test: Antiproliferative activity against human HeLa cells after 72 hrs by MTT assay; assay type: functional, cell-based
DU-145 [15] = test: Effect on Tyr416 phosphorylated-Src protein level in human DU145 cells at 0.1 to 2 uM after 2 hrs by Western blot analysis; assay type: functional, cell-based
DU-145 [16] = test: Antiproliferative activity against human DU145 cells after 72 hrs by MTT assay; assay type: functional, cell-based; conditions: DU-145, 72 h
[17] = target: Signal transducer and activator of transcription 3 (Homo sapiens) (UniProt P40763); test: Inhibition of STAT3 phosphorylation at Tyr705 in human DU145 cells at 2 uM within 2 hrs by Western blot analysis; assay type: cell-based; conditions: DU-145
[18] = target: Mitogen-activated protein kinase 1 (Homo sapiens, UniProt P28482); test: Inhibition of Erk2 after 60 mins by radiometric assay
DU-145 [19] = test: Induction of apoptosis in human DU145 cells assessed as late apoptotic cells at 10 uM after 72 hrs by AnnexinV-propidium iodide based FACS flow cytometry; assay type: functional
DU-145 [20] = test: Decrease in STAT3 protein level in human DU145 cells after 24 hrs by Western blot analysis; assay type: functional, cell-based
DU-145 [21] = test: Cell cycle arrest in human DU145 cells assessed as accumulation in G0/G1 phase at 1 uM after 24 hrs by FACS flow cytometry; assay type: functional
[22] = target: Signal transducer and activator of transcription 3 (Homo sapiens) (UniProt P40763); test: Inhibition of STAT3 phosphorylation at Tyr705 in human DU145 cells after 24 hrs by Western blot analysis; assay type: cell-based; conditions: DU-145
DU-145 [23] = test: Growth inhibition of human DU145 cells assessed as inhibition of colony formation after 11 to 12 days by crystal violet staining based microscopic analysis; assay type: functional, cell-based
DU-145 [24] = test: Cell cycle arrest in human DU145 cells assessed as accumulation in G2/M phase at 0.5 uM after 24 hrs by FACS flow cytometry; assay type: functional
[25] = target: Glycogen synthase kinase-3 beta (Homo sapiens, UniProt P49841); test: Inhibition of GSK3-beta after 60 mins by radiometric assay
[26] = target: Signal transducer and activator of transcription 3 (Homo sapiens) (UniProt P40763); test: Inhibition of STAT3 nuclear translocation in EGF stimulated human DU145 cells at 1 uM administered before 100 ng/ml EGF stimulation measured after 2 hrs by confocal laser microscopy; assay type: cell-based; conditions: DU-145
[27] = target: Mast/stem cell growth factor receptor Kit (Homo sapiens, UniProt P10721); test: Inhibition of KIT after 60 mins by radiometric assay
A-431 = test: Antiproliferative activity against human A431 cells after 72 hrs by MTT assay; assay type: functional, cell-based; conditions: A-431, 72 h
[28] = target: Serine/threonine-protein kinase B-raf (Homo sapiens, UniProt P15056, V600E); test: Inhibition of B-Raf V600E mutant after 60 mins by radiometric assay
DU-145 [29] = test: Induction of apoptosis in human DU145 cells assessed as necrotic cells at 1 uM after 72 hrs by AnnexinV-propidium iodide based FACS flow cytometry; assay type: functional
DU-145 [30] = test: Decrease in c-Myc protein level in human DU145 cells at 0.1 to 2 uM after 2 hrs by Western blot analysis; assay type: functional, cell-based
DU-145 [31] = test: Induction of apoptosis in human DU145 cells assessed as early apoptotic cells at 10 uM after 72 hrs by AnnexinV-propidium iodide based FACS flow cytometry; assay type: functional
DU-145 [32] = test: Cell cycle arrest in human DU145 cells assessed as accumulation in G0/G1 phase at 0.5 uM after 24 hrs by FACS flow cytometry; assay type: functional
[33] = target: Signal transducer and activator of transcription 5A (Homo sapiens) (UniProt P42229); test: Inhibition of STAT5 phosphorylation at Tyr694 after 2 hrs by Western blot analysis
DU-145 [34] = test: Effect on […] phosphorylated-Src protein level in human DU145 cells at 0.1 to 2 uM after 2 hrs by Western blot analysis; assay type: functional, cell-based

Sequence of Signal transducer and activator of transcription 3 (Homo sapiens) (P40763 whole entry): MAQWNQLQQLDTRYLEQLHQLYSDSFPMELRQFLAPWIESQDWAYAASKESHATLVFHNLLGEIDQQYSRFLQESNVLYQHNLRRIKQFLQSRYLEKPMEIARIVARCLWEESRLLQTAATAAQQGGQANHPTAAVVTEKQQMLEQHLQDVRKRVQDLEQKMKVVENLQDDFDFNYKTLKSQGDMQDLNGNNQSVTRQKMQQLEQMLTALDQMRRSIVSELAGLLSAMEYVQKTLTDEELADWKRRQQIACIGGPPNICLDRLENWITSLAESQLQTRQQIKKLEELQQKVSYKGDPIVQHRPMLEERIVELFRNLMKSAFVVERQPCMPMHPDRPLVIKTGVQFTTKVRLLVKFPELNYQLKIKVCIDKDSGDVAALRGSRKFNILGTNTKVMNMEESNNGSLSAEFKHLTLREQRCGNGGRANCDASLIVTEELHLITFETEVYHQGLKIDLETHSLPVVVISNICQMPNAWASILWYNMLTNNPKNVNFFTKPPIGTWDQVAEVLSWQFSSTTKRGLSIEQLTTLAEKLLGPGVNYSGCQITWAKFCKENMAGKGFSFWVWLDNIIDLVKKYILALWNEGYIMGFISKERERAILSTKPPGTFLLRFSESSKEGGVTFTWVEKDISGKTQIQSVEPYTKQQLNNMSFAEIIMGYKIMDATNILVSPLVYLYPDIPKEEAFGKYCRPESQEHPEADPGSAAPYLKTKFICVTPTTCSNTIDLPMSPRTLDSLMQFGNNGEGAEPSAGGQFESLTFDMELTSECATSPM
Sequence of Mitogen-activated protein kinase 1 (P28482 whole entry): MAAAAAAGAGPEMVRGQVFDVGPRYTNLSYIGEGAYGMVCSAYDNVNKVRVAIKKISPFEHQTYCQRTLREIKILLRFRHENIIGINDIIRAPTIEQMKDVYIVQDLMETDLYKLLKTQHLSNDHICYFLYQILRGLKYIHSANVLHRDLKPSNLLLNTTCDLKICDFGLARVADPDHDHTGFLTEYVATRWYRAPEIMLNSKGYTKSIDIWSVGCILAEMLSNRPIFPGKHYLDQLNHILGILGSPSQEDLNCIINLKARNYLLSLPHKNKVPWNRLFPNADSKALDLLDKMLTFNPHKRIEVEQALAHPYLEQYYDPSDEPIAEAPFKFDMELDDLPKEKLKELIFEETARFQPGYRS
Sequence of Glycogen synthase kinase-3 beta (P49841 whole entry): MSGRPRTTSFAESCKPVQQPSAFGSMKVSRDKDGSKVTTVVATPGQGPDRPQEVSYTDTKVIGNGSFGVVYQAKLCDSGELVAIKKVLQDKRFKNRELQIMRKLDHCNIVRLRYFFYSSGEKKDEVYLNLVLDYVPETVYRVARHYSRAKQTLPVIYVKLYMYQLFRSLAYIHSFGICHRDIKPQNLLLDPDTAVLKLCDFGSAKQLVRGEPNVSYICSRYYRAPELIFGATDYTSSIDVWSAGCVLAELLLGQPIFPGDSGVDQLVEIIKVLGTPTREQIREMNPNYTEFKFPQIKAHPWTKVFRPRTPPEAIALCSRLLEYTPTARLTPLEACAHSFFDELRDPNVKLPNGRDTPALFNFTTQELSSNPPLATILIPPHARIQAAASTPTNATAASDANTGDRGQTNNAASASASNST
Sequence of Signal transducer and activator of transcription 1-alpha/beta (Homo sapiens) (P42224 whole entry): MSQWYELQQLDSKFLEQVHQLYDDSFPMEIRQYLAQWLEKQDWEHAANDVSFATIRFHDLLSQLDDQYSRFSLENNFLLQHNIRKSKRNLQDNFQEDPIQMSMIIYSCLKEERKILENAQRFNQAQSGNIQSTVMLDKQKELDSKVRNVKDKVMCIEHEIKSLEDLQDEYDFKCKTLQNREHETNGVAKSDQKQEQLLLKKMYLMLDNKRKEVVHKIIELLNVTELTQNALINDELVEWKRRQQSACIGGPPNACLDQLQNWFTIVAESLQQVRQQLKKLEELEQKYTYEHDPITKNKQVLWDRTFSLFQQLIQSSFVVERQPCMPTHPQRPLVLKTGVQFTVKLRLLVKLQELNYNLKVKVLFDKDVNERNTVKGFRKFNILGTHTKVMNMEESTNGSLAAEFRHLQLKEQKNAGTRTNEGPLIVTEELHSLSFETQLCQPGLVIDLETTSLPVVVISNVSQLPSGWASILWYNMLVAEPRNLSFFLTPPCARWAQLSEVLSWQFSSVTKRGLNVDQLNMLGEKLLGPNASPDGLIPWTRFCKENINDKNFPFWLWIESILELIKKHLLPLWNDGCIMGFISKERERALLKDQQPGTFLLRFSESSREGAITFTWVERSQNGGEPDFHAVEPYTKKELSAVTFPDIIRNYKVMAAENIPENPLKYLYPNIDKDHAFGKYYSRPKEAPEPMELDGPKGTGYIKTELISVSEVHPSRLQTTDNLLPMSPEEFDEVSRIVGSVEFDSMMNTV
Sequence of 3-phosphoinositide-dependent protein kinase 1 (O15530 whole entry): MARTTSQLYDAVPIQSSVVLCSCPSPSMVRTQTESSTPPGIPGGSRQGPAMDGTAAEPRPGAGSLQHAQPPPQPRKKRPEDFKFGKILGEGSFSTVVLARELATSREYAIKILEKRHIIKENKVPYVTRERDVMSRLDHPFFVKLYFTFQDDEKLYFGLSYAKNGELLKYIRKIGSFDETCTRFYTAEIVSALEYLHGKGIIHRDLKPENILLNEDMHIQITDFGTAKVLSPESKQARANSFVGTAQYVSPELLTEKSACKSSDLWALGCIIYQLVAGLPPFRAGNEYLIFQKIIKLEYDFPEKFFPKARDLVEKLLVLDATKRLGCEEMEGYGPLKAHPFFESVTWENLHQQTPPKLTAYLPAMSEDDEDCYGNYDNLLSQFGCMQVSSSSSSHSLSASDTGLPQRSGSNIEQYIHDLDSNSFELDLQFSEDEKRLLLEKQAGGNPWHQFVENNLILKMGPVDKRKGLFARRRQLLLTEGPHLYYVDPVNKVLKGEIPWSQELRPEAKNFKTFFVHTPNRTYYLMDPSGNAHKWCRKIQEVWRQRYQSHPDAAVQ
Sequence of Mast/stem cell growth factor receptor Kit (P10721 whole entry): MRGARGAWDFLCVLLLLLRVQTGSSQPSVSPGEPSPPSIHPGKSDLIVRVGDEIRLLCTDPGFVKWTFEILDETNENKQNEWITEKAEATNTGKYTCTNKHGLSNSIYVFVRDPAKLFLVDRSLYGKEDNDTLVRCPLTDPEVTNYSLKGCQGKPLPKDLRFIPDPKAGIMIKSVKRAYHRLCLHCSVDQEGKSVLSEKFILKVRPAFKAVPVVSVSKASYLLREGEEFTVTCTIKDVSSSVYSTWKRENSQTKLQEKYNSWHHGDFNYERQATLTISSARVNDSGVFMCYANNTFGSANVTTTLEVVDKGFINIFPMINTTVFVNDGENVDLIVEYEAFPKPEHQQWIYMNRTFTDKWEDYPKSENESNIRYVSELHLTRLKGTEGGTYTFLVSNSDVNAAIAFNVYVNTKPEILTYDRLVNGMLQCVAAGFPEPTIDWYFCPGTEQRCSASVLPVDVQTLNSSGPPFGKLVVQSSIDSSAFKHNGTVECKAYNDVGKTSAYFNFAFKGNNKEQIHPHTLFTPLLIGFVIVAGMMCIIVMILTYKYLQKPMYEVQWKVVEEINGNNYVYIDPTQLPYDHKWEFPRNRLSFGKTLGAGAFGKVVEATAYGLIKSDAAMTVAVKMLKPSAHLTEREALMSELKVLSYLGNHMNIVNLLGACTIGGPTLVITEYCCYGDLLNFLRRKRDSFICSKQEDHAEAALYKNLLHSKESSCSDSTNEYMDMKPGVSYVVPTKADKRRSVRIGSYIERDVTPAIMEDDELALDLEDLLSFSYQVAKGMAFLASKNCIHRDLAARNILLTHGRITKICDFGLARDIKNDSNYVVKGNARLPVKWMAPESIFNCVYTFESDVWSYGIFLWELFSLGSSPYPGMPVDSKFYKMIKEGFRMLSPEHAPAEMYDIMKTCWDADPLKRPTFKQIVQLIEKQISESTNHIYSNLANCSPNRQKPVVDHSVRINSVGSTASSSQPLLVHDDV
Sequence of Receptor-type tyrosine-protein kinase FLT3 (P36888 whole entry): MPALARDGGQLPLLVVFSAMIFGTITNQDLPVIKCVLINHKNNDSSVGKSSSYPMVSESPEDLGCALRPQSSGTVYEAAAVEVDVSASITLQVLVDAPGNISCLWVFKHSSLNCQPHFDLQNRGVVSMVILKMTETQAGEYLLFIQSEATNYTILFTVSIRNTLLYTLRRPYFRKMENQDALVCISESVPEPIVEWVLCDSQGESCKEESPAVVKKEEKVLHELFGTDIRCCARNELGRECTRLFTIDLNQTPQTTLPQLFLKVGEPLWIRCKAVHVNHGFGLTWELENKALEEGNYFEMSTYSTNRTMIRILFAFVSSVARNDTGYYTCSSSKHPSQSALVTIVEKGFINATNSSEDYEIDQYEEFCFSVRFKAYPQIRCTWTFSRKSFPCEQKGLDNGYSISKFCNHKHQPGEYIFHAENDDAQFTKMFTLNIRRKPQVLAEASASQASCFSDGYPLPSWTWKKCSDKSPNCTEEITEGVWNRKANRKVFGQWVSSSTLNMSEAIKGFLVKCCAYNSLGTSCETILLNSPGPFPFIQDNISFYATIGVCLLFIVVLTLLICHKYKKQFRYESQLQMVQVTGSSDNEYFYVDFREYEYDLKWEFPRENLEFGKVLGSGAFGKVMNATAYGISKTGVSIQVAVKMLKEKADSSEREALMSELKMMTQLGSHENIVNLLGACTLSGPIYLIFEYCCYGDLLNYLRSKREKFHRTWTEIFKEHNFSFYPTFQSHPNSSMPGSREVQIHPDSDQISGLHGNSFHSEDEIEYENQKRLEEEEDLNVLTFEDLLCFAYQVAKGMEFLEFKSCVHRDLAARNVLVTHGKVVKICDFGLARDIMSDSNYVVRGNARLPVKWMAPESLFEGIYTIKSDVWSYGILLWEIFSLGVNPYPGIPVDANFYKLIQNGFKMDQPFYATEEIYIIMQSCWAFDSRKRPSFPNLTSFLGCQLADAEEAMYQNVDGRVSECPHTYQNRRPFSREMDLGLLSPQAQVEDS

For O=C(Nc1ccc([N+](=O)[O-])cc1Cl)c1cc(Cl)ccc1O [NICLOSAMIDE], the Activity (DU-145 [1]) was “inactive”, the IC50 [2] was over 100 µM and the IC50 (PC-3) was 11.7 µM. The Activity (DU-145 [3]) was 10.44%, the Activity (DU-145 [4]) was “inactive” and the IC50 [5] was over 100 µM. For the same compound, the Activity (DU-145 [6]) was “inactive”, the inhibition [7] was “inactive” and the Activity (DU-145 [8]) was “inactive”. It also gave an IC50 [9] of 83.9 µM, an IC50 [10] of 13.1 µM and an IC50 [11] of over 100 µM. The viability at 5 µM (DU-145 [12]) was 61.9%, the Activity (DU-145 [13]) was “Active” and the inhibition [14] was “inactive”. The IC50 (HeLa) was 1400 nM, the Activity (DU-145 [15]) was “inactive” and the IC50 (DU-145 [16]) was 700 nM. For the same compound, the inhibition [17] was “Active”, the IC50 [18] was over 100 µM and the Activity (DU-145 [19]) was 38.72%. The Activity (DU-145 [20]) was “inactive”, the Activity (DU-145 [21]) was 75.35% and the inhibition [22] was “Dose-dependent effect”. It also gave an IC50 (DU-145 [23]) of 700 nM, an Activity (DU-145 [24]) of 9.76% and an IC50 [25] of 77.5 µM. The inhibition [26] was “Active”, the IC50 [27] was 27.8 µM and the IC50 (A-431) was 8.8 µM. The IC50 [28] was over 100 µM, the Activity (DU-145 [29]) was 2.63% and the Activity (DU-145 [30]) was “Active”. For the same compound, the Activity (DU-145 [31]) was 15.42%, the Activity (DU-145 [32]) was 57.4% and the inhibition [33] was “inactive”. The Activity (DU-145 [34]) was “inactive”.
